Experimental data published in paper PMC9312958, “A Novel and Selective Dopamine Transporter Inhibitor, (S)-MK-26, Promotes Hippocampal Synaptic Plasticity and Restores Effort-Related Motivational Dysfunctions” (Biomolecules, 2022).

Key:
[1] = test system: CA3-CA1 hippocampal synapses; experiment: Ex vivo hippocampal slice electrophysiology after i.p. treatment; type: in vivo, rat; conditions: 10 mg/kg i.p.
Description: All electrophysiological experiments were conducted post mortem. Hippocampal slices (n = 12 animals/group) were prepared 1 h after the pharmacological treatments (animal experiments conducted under BMBWF-66.009/235/V/3b/2018 regulations). Animals underwent a brief sedative exposure to low CO2 inhalation and were immediately afterwards euthanized using a sharp-blade guillotining (DCAP-M, World Precision Instruments, Inc., Sarasota, FL, USA). The brains were removed and transferred to an ice-cold artificial Cerebrospinal Fluid (aCSF) solution containing (in mM): 125 NaCl, 2.5 KCl, 20 NaHCO3, 2.5 CaCl2, 1 MgCl2, 25 D-glucose, 1 NaH2PO4 (pH 7.4). Hippocampi were extracted and cut transversally with a tissue chopper (McIlwain TC752, Campden Instruments LTD., Loughborough, England) to obtain 400 µm-thick slices. Before electrophysiological assays, the slices rested for at least 1 h in a submerged recovery chamber (filled with aCSF) placed in a water bath with the temperature set at 30 °C. […]
Slice recordings were carried out in a submerged chamber receiving 3–4 mL/min of carbogenated aCSF (30 ± 2 °C). Field excitatory postsynaptic potentials (fEPSPs) were recorded using glass pipettes made of pulled capillary-glass obtained from Harvard Apparatus (Harvard Apparatus, GmbH; Hugo Sachs Elektronik, Germany). Evoked fEPSPs were recorded at the CA1 stratum-radiatum layer after electrically stimulating the collateral projections of Schaffer coming from the CA3 region as previously reported. […] Basal synaptic transmission was assessed by the generation of input/output (I/O) curves, resulting from the plotting of the field slope values (output; normalized to maximum) against the presented electrical stimulus intensity (input voltage). […] LTP was determined from the temporal progression of the fEPSP slope values (decaying phase) after LTP induction, normalized to the averaged slope values obtained before LTP-induction (base line values). The data for LTP from all slices were averaged for each animal (2–5 slices per rat were measured and averaged to yield one single value per animal). […]

hSERT = molecular target: T1, hSERT (Homo sapiens, UniProt P31645); experiment: hSERT radioligand binding assay (CHO cells, [3H]imipramine)
T1 construct: expressed in transfected cells
Description: Binding affinity to the hDAT, hNET and hSERT expressed in CHO cells was evaluated in in vitro radioligand binding assays. Binding assays were conducted according to the standard and validated protocols under conditions defined by the contractor (Eurofins Cerep SA, Celle-’Evescault, France; study number 100054410). Antagonist radioligand assays were conducted for the human norepinephrine, the human dopamine, and the serotonin transporters (using CHO cells), using [^3H]nisoxetine (1 nM), [^3H]BTCP (4 nM), and [^3H]imipramine (2 nM) as ligands and desipramine (1 µM), BTCP (10 µM), and imipramine (10 µM) as non-specific agents, respectively (with scintillation counting as detection method).

T1 sequence (P31645 whole entry): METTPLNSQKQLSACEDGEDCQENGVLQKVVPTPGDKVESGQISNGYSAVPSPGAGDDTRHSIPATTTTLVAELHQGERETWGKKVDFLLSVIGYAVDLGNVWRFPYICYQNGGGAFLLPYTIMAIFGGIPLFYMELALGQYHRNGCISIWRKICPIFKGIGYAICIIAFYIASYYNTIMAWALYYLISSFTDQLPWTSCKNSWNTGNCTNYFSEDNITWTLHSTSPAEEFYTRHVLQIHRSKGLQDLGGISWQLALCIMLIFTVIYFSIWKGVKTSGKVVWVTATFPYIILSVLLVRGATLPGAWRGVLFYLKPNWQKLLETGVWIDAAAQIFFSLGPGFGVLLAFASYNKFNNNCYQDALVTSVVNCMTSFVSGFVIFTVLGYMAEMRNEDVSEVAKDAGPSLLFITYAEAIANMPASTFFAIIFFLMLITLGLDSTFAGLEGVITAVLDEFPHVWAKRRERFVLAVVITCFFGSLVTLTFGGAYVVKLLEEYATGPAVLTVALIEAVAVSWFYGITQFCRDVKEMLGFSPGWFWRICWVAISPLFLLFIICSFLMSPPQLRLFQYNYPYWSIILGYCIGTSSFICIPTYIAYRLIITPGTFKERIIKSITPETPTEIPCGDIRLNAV

`[O-][S@@+](Cc1cncs1)C(c1cccc(Cl)c1)c1cccc(Cl)c1` [(S)-MK-26, (S)-5-(((B(3-chlorophenyl)methyl)sulphinyl)methyl)thiazole] was tested. Which “basal synaptic transmission (I/O curves, fEPSP slopes)” value ([1]; old rats (~20 months), slices 1 h after injection) did it give?
Its value is “no effects”.

What about the “Post-Tetanic Potentiation (1 min after LTP induction)” value ([1]; old rats) of the same compound?
The value was “comparable to those from the Koliphor/control group”.

And the “LTP responses (25 min after LTP induction)” value ([1]; old rats, p = 0.0133)?
Its value is “significant enhancement in their LTP responses”.

And the “binding to SERT” value (hSERT)?
Its value is “trifling bindings”.
